pEC50, pIC50: −log10 of the molar value.

The test system of assay [1] is IgG. As to the kind of experiment: IgG production in normal B cell / PBMC differentiation cultures (ELISA). Conditions: Homo sapiens; for pIC50: read-out: IgG production IC50; for IC50: PBMC, read-out: IgG IC50 (nM) Normal (n = 3). Background: ELISA stands for enzyme-linked immunosorbent assay.
For assay [2], the system named is DBA/2 mice. As to the kind of experiment: Bleomycin-induced dermal fibrosis mouse model (prevention). Type of assay: in vivo. Conditions: 50 mg/kg, IP, QD, p<0.0001. The method, then:
(§1) DBA/2 mice were used in this study. Eight animals were used per treatment group in the study. Mice were kept in the animal house under standard conditions with food and water ad libidum.
The vehicle, 0.5% carboxymethyl cellulose (CMC)/0.25% Tween 80, was prepared in distilled H2O and dissolved overnight on a magnetic stirrer (add 0.5 g CMC; Sigma #C9481) and 0.25 ml Tween 80 (Sigma #P8074) to 99.75 ml to make a total of 100 ml 0.5% CMC/0.25% Tween 80).
(§2) The compound was suspended, not dissolved, in this vehicle. The formulation was homogenized with a Teflon pestle and mortar (Potter-Elvehjem tissue grinder) using a motorized Eberbach tissue homogenizer. The daily drug stock concentration used in these studies was 3 mg/ml.
(§3) Bleomycin was obtained from the pharmacy of the University of Erlangen-Nuremberg and freshly prepared once a week. Skin fibrosis was induced in 6-week-old DBA mice by local intracutaneous injections of 100 μl of bleomycin dissolved in 0.9% NaCl, at a concentration of 0.5 mg/ml, every other day in defined areas of 1.5 cm^2 on the upper back.
The mouse model of bleomycin induced dermal fibrosis is widely used to evaluate anti-fibrotic therapeutics. In this model, a localized dermal fibrosis is induced by intradermal injections with bleomycin every other day for 3 weeks. This model resembles early, inflammatory stages of SSc. To evaluate potential effects on prevention of fibrosis, treatment was initiated simultaneously with the first bleomycin injection. […] Treatment consisted of administration of the vehicle (0.5% CMC/0.25% Tween 80). • Untreated bleomycin group: Intradermal injection of bleomycin for three weeks. […] Injection of Imatinib (50 mg/kg; IP, QD). […] See Akhmetshina A. et al., Arthritis Rheum 2009; 60(1):219-224.
(§4) Dermal thickness was determined by staining with hematoxylin and eosin and activated fibroblasts by using immunohistochemistry for alpha smooth muscle actin (α-SMA). The dermal thickness, as determined by the modified Rodnan Skin Score, is currently the most common primary outcome in human clinical trials for anti-fibrotic agents in SSc. […] Dermal thickness was analyzed with a Nikon Eclipse 80i microscope (Nikon, Badhoevedorp, The Netherlands) by measuring the maximal distance between the epidermal-dermal junction and the dermal-subcutaneous fat junction at 4 different skin sections in each mouse. […]
(§5) For quantification of myofibroblasts, skin sections were deparaffinized and incubated with 5% bovine serum albumin for 60 minutes. Cells positive for α-SMA were detected by incubation with monoclonal anti-α-SMA antibodies (clone 1A4; Sigma-Aldrich, Steinheim, Germany) for 2 hours at room temperature followed by incubation with 3% hydrogen peroxide for 10 minutes. […]

Assay [3] relates to DBA/2 mice. Kind of assay: Bleomycin-induced dermal fibrosis mouse model (regression of established fibrosis). Type of assay: in vivo. Conditions: 50 mg/kg, p<0.0001. The method, then: as §1, §2, §3
To evaluate regression of fibrosis, a modified model of bleomycin induced dermal fibrosis was used. Mice were pre-challenged with bleomycin to induce a robust skin fibrosis. One group received treatment with the test compound, while challenge with bleomycin was ongoing for additional three weeks. The outcome of this group was compared to mice challenged with bleomycin for six weeks (prevention of further progression) and to mice challenged with bleomycin for three weeks followed by NaCl for additional three weeks (induction of regression). The following groups were used in the regression study: • Control group: Intradermal injection of NaCl for six weeks. Control treatment consisted of administration of the vehicle. • Untreated bleomycin group 1 (regression): Intradermal injection of bleomycin for three weeks followed by intradermal injections of NaCl for another three weeks. Treatment consisted of administration of the vehicle. […]
as §4, §5

For assay [4], the system named is Tsk-1 mouse. As to the kind of experiment: Tight skin-1 (Tsk-1) mouse model: hypodermal thickness and hydroxyproline. Type of assay: in vivo. Conditions: 50 mg/kg; p≤0.001. The text has this:
First, the inhibitory effects of the compound on fibrosis in the Tsk-1 tight skin mouse model were also investigated.

Assay [5] has as its system IgM. Kind of assay: IgM production in normal PBMC differentiation cultures (ELISA). Conditions: Homo sapiens, read-out: IgM IC50 (nM) Normal (n = 3).
Assay [6] has as its system IgM. Kind of assay: IgM production by SLE patient PBMC (ELISA). Particulars: Homo sapiens, read-out: IgM IC50 (nM) SLE (n = 3).
Assay [7] has as its target T1, CRBN (Homo sapiens, UniProt Q96SW2).
T1 construct: endogenous in cells; host or cells: U266 multiple myeloma cells (cell extracts)
Kind of assay: Competitive CRBN binding with thalidomide analog-conjugated beads (U266 extracts). Conditions: preincubation at 3 uM. The method, then:
Binding studies to CRBN were conducted using thalidomide analog-conjugated beads in a competitive assay. […] Affinity beads coupled to a thalidomide acid analog were incubated with the U266 extracts and, after extensive washing of the beads, the bound proteins were eluted. CRBN binding to the thalidomide-coupled affinity beads was determined by quantitative CRBN immunoblot determination.

For assay [8], the system named is IL-2. As to the kind of experiment: T-cell costimulation: IL-2 production (immobilized anti-CD3, ELISA). Type of assay: cell-based. Particulars: Homo sapiens, 48 h, read-out: EC50 for co-stimulated IL-2 production by T cells. The method, then:
CRBN ubiquitination was measured in HEK293T cells, which were transfected with an amino-terminal His-biotin-tagged CRBN construct, then preincubated with compounds for one hour followed by treatment with the MG132 proteasome inhibitor (to arrest degradation of ubiquitinated proteins). Cells were lysed and processed to measure CRBN ubiquitination by SDS-PAGE and immunoblot analysis using an anti-ubiquitin antibody. Cell proliferation studies were conducted in enalidomide-sensitive and refractory multiple myeloma cells. […] T-cell costimulation was measured in purified primary human T cells stimulated using immobilized anti-CD3 antibody in cell culture for 2 days, and cytokine secretion was measured by ELISA.

Assay [9] deals with IgG. As to the kind of experiment: IgG production by SLE patient PBMC (ELISA). Particulars: Homo sapiens, read-out: IgG IC50 (nM) SLE (n = 3).

Turning to `Nc1cccc2c1CN(C1CCC(=O)NC1=O)C2=O` (stereo not drawn) [lenalidomide], the negative-log IC50 (pIC50) (as a rule, the IC50 on a negative log10 scale, so that one unit is a factor of ten) in [1] was 6.49.
As for `Cc1ccc(NC(=O)c2ccc(CN3CCN(C)CC3)cc2)cc1Nc1nccc(-c2cccnc2)n1` [Imatinib, reference compound], in [2] (3 weeks), the “reduction of dermal thickening” value was determined as 60±0.34%. In addition, in assay [2], the “reduction of myofibroblast numbers” value is listed as 81±0.11%. In [3], the “reduction of bleomycin induced dermal thickness” value is reported as 50±0.3% and the “reduction of myofibroblast numbers” value is given as 78±0.15%. For the same compound, in assay [4], the “reduction of collagen content of the skin (hydroxyproline levels)” value was determined as 67% and the “reduction of hypodermal thickening” value is listed as 58%.
In the case of `Nc1cccc2c1C(=O)N(C1CCC(=O)NC1=O)C2=O` (stereo not drawn) [pomalidomide], the IC50 – broadly, the concentration that inhibits the measured activity by half – in assay [5] is 17 nM; in [6], 3.8 nM; in assay [1] it was 63 nM; in [9] it was 19 nM. Moreover, the “less CRBN bound to the affinity beads” value in assay [7] is “approximately 50%”. The pEC50 (in general, the negative decadic logarithm of the EC50, by convention in mol/L) in assay [8] was 8.00. The pIC50 in assay [1] is 7.31.
As for `CCOc1cc([C@@H](CS(C)(=O)=O)N2C(=O)c3cccc(NC(C)=O)c3C2=O)ccc1OC` [apremilast], the IC50 in [5], in [6], in assay [1] and in assay [9] was > 10000 nM throughout.

The values are drawn from US11524950B2, “Treatment of immune-related and inflammatory diseases” (Celgene Corporation, priority 2012, dated 2022).
